Assays:
Experiment in all cases: radiometric filter-binding kinase assay, Kinaseprofiler
EPHB1 (human) = EPHB1 (human) (UniProt P54762); conditions: compound 1.0 µM; ATP 200 µM
PAK3 (human) = PAK3 (human) (UniProt O75914); conditions: compound 1.0 µM; ATP 120 µM
INSRR (human) = INSRR (human) (UniProt P14616); conditions: compound 1.0 µM; ATP 200 µM
[1] = tested on: BRSK2 (human), Q8IWQ3 [S251I]; conditions: compound 1.0 µM; ATP 70 µM
CDK5 CDK5R1 p25 (human) = CDK5 CDK5R1 p25 (human) (UniProt Q00535+Q15078); conditions: compound 1.0 µM; ATP 15 µM
PRKD1 (human) = PRKD1 (human) (UniProt Q15139); conditions: compound 1.0 µM; ATP 45 µM
ROCK1 (human) = ROCK1 (human) (UniProt Q13464); conditions: compound 1.0 µM; ATP 70 µM
STK24 (human) = STK24 (human) (UniProt Q9Y6E0); conditions: compound 1.0 µM; ATP 15 µM
FGFR4 (human) = FGFR4 (human) (UniProt P22455); conditions: compound 1.0 µM; ATP 155 µM
EPHA4 (human) = EPHA4 (human) (UniProt P54764); conditions: compound 1.0 µM; ATP 15 µM
PRKCB1 (human) = PRKCB1 (human) (UniProt P05771); conditions: compound 1.0 µM; ATP 10 µM
PRKCB1 (human), sequence (P05771 whole entry, looked up): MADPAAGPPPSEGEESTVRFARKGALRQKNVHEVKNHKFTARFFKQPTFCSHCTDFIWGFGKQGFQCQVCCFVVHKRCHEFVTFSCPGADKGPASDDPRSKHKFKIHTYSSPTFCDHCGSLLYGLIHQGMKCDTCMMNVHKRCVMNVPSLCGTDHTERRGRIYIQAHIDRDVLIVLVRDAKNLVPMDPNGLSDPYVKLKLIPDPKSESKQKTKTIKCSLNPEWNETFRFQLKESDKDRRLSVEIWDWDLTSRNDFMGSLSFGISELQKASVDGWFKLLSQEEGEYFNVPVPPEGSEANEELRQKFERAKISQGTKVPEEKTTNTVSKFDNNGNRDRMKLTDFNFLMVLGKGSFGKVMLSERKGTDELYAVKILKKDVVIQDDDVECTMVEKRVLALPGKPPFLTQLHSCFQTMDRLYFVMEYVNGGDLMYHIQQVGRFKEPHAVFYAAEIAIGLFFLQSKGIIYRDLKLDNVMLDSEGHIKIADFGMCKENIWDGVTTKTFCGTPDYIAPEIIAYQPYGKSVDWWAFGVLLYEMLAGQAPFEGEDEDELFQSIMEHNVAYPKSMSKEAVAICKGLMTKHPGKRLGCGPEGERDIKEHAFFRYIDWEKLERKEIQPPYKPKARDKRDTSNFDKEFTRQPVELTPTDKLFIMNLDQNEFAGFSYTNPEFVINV

IRAK1 (human) = IRAK1 (human) (UniProt P51617); conditions: compound 1.0 µM; ATP 45 µM
BRSK1 (human) = BRSK1 (human) (UniProt Q8TDC3); conditions: compound 1.0 µM; ATP 200 µM
FLT1 (human) = FLT1 (human) (UniProt P17948); conditions: compound 1.0 µM; ATP 200 µM
[2] = tested on: AKT1 (human), P31749 [S478G]; conditions: compound 1.0 µM; ATP 155 µM
FRK (human) = FRK (human) (UniProt P42685); conditions: compound 1.0 µM; ATP 155 µM
IKBKB (human) = IKBKB (human) (UniProt O14920); conditions: compound 1.0 µM; ATP 10 µM
IKBKB (human), sequence (O14920 whole entry, looked up): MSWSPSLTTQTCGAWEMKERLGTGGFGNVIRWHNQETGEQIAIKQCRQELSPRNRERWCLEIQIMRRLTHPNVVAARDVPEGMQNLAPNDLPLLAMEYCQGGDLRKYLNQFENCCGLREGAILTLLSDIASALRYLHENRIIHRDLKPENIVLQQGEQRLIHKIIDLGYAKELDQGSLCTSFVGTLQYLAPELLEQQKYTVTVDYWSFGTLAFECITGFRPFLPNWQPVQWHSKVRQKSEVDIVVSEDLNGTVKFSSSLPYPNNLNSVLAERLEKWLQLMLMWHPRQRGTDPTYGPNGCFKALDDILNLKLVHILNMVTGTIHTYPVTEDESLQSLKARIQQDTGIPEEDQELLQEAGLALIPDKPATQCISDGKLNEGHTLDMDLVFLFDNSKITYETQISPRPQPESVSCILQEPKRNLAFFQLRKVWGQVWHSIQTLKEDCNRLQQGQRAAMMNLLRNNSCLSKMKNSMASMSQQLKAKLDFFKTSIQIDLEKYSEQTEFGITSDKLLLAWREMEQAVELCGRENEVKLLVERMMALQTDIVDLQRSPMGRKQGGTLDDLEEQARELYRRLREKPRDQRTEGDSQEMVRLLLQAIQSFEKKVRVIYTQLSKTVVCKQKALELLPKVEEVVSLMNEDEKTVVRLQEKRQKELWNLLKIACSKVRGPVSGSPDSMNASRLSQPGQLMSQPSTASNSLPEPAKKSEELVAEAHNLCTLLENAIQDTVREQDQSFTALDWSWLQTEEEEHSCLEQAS

[3] = tested on: GSK3A (human), P49840 [S449A]; conditions: compound 1.0 µM; ATP 10 µM
GSK3A (human), P49840 [S449A], sequence (P49840 whole entry, looked up, stated change not applied): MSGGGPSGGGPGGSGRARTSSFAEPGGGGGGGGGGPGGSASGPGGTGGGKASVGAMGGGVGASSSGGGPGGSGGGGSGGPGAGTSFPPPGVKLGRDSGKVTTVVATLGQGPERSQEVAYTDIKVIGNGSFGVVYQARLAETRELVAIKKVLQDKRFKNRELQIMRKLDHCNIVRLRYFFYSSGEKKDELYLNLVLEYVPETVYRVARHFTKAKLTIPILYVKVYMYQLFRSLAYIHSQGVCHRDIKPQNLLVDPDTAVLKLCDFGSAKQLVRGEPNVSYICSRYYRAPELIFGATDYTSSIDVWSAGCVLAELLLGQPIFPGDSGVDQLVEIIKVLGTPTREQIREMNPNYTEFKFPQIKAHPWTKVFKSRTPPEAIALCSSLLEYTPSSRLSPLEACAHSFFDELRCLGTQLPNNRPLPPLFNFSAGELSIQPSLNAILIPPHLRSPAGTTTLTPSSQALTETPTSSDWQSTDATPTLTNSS

[4] = tested on: FLT4 (human), P35916 [V1128L/H1146R]; conditions: compound 1.0 µM; ATP 200 µM
FLT4 (human), P35916 [V1128L/H1146R], sequence (P35916 whole entry, looked up, stated change not applied): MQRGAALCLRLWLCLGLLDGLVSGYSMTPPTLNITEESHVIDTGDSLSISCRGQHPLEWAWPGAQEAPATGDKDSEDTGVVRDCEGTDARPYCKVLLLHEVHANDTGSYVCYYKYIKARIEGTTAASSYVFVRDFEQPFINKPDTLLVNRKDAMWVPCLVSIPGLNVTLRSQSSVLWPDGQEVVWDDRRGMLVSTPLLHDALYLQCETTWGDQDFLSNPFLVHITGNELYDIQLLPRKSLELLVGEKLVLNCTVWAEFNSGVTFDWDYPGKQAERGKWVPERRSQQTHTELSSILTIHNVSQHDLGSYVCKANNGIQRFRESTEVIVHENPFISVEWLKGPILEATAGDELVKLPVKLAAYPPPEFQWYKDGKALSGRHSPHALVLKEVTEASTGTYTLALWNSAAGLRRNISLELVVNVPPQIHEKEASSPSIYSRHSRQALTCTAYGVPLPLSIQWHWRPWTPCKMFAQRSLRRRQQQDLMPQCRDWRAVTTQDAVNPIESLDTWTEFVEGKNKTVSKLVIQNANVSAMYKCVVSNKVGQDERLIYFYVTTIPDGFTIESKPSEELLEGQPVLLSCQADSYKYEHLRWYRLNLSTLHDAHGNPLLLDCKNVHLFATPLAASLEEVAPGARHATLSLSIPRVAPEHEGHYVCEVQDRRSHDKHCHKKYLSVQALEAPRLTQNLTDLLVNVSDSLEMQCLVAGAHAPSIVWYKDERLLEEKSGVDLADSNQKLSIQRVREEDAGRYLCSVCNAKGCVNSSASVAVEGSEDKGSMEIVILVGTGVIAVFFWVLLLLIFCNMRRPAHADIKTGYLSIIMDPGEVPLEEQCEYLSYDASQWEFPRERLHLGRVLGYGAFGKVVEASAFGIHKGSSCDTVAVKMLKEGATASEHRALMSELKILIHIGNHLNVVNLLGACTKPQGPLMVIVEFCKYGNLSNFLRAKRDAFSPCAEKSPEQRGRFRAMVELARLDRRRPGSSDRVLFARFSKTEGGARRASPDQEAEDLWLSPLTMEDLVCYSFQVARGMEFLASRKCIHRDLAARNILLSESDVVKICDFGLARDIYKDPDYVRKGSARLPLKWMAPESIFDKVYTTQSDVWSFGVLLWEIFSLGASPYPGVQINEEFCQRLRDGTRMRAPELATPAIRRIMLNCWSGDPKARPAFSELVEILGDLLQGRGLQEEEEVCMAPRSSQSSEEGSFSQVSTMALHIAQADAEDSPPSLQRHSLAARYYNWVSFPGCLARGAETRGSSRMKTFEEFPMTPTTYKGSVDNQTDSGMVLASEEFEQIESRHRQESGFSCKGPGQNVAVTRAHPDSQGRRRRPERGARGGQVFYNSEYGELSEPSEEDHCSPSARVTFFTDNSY

MAP2K7 (human) = MAP2K7 (human) (UniProt O14733); conditions: compound 1.0 µM; ATP 10 µM
RPS6KA2 KD1 KD2 (human) = RPS6KA2 KD1 KD2 (human) (UniProt Q15349); conditions: compound 1.0 µM; ATP 10 µM
MAP3K9 (human) = MAP3K9 (human) (UniProt P80192); conditions: compound 1.0 µM; ATP 45 µM
PKN2 (human) = PKN2 (human) (UniProt Q16513); conditions: compound 1.0 µM; ATP 15 µM
CAMK4 (human) = CAMK4 (human) (UniProt Q16566); conditions: compound 1.0 µM; ATP 10 µM
CHEK1 (human) = CHEK1 (human) (UniProt O14757); conditions: compound 1.0 µM; ATP 90 µM
MAP3K5 (human) = MAP3K5 (human) (UniProt Q99683); conditions: compound 1.0 µM; ATP 200 µM
MAPKAPK3 (human) = MAPKAPK3 (human) (UniProt Q16644); conditions: compound 1.0 µM; ATP 90 µM
SGK3 (human) = SGK3 (human) (UniProt Q96BR1); conditions: compound 1.0 µM; ATP 155 µM
SRPK3 (human) = SRPK3 (human) (UniProt Q9UPE1); conditions: compound 1.0 µM; ATP 15 µM
PRKX (human) = PRKX (human) (UniProt P51817); conditions: compound 1.0 µM; ATP 200 µM
[5] = tested on: PRKCH (human), P24723 [V108L/G109R/L392Q]; conditions: compound 1.0 µM; ATP 45 µM
PAK6 (human) = PAK6 (human) (UniProt Q9NQU5); conditions: compound 1.0 µM; ATP 10 µM
NTRK1 (human) = NTRK1 (human) (UniProt P04629); conditions: compound 1.0 µM; ATP 120 µM
SRC (human) = SRC (human) (UniProt P12931); conditions: compound 1.0 µM; ATP 200 µM
[6] = tested on: KIT (human), P10721 [D816V]; conditions: compound 1.0 µM; ATP 200 µM
KIT (human), P10721 [D816V], sequence (P10721 whole entry D816V, looked up): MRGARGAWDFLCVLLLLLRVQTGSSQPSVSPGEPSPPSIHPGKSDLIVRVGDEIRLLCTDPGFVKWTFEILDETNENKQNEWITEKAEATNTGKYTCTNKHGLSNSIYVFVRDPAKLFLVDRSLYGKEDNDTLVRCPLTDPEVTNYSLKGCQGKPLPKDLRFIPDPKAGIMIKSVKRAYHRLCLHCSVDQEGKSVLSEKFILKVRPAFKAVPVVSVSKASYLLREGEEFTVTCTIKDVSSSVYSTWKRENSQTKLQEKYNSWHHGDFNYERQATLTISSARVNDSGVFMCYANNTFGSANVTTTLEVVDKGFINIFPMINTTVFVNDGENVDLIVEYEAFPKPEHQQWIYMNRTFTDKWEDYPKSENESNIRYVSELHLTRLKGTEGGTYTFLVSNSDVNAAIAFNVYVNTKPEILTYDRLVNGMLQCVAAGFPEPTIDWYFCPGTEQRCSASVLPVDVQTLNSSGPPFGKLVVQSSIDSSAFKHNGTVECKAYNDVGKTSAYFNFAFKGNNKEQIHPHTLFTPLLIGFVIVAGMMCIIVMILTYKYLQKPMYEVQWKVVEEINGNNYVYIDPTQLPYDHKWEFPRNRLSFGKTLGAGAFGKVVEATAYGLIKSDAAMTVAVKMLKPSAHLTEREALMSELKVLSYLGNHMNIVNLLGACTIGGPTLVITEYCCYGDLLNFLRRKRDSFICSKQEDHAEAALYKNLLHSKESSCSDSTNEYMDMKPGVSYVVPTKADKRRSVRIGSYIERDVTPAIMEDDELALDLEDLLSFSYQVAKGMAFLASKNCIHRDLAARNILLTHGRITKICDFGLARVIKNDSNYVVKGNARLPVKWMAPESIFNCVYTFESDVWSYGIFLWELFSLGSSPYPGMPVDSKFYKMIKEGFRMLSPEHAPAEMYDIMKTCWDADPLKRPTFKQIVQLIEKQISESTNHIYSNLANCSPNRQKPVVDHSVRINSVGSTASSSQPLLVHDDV

LIMK1 (human) = LIMK1 (human) (UniProt P53667); conditions: compound 1.0 µM; ATP 15 µM
EPHB4 (human) = EPHB4 (human) (UniProt P54760); conditions: compound 1.0 µM; ATP 10 µM
YES1 (human) = YES1 (human) (UniProt P07947); conditions: compound 1.0 µM; ATP 45 µM

PAK3 (human), sequence (O75914 whole entry, looked up): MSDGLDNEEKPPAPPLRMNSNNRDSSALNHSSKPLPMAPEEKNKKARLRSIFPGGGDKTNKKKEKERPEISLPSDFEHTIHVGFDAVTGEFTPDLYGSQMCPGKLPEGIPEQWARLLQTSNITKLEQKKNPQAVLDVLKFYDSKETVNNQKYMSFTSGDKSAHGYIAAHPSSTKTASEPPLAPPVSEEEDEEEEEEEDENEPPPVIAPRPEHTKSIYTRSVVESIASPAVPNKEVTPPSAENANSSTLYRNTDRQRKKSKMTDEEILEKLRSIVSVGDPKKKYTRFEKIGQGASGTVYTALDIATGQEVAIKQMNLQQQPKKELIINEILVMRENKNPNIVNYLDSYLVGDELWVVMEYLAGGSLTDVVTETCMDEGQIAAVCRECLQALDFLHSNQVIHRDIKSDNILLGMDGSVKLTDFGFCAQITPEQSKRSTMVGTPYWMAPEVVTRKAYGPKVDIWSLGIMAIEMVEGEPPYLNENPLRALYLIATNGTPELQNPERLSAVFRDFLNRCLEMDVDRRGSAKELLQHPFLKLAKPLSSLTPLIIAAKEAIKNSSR

SMILES: CN(C)S(=O)(=O)Nc1ccc2ccc3ncc(-c4cnn(C)c4)cc3c(=O)c2c1
- residual activity (EPHB1 (human)): 67%
- residual activity (PAK3 (human)): 99%
- residual activity (INSRR (human)): 103%
- residual activity [1]: 55%
- residual activity (CDK5 CDK5R1 p25 (human)): 88%
- residual activity (PRKD1 (human)): 93%
- residual activity (ROCK1 (human)): 107%
- residual activity (STK24 (human)): 102%
- residual activity (FGFR4 (human)): 88%
- residual activity (EPHA4 (human)): 103%
- residual activity (PRKCB1 (human)): 104%
- residual activity (IRAK1 (human)): 83%
- residual activity (BRSK1 (human)): 74%
- residual activity (FLT1 (human)): 5%
- residual activity [2]: 109%
- residual activity (FRK (human)): 104%
- residual activity (IKBKB (human)): 98%
- residual activity [3]: 86%
- residual activity [4]: 10%
- residual activity (MAP2K7 (human)): 69%
- residual activity (RPS6KA2 KD1 KD2 (human)): 66%
- residual activity (MAP3K9 (human)): 61%
- residual activity (PKN2 (human)): 92%
- residual activity (CAMK4 (human)): 98%
- residual activity (CHEK1 (human)): 98%
- residual activity (MAP3K5 (human)): 98%
- residual activity (MAPKAPK3 (human)): 102%
- residual activity (SGK3 (human)): 94%
- residual activity (SRPK3 (human)): 83%
- residual activity (PRKX (human)): -12%
- residual activity [5]: 126%
- residual activity (PAK6 (human)): 109%
- residual activity (NTRK1 (human)): 1%
- residual activity (SRC (human)): 125%
- residual activity [6]: 95%
- residual activity (LIMK1 (human)): 72%
- residual activity (EPHB4 (human)): 103%
- residual activity (YES1 (human)): 71%

Reference: the kinase profiling compilation of Christmann-Franck et al. (2016)
